Measured values reported in patent publication US8247211B2, “Glycopeptide antibiotics” (American Cyanamid Company, priority 2001, dated 2012).
In brackets after ≈: the same amount, converted by molar mass. One block for each molecule: values may come before it.

What was measured:
Experiment in all cases: In vitro antibacterial evaluation: minimum inhibitory concentration (MIC), broth dilution method
Type in all cases: cell-based
[1] = tested on: Streptococcus sp.; conditions: broth dilution, 5×10^5 CFU/mL, 18 hours at 35° C.
Description: (§1) The minimum inhibitory concentration (MIC), the lowest concentration of the antibiotic which inhibits growth of the test organism, is determined by the broth dilution method using Muller-Hinton II […] (Baltimore Biological Laboratories) following the recommendations of the National Committee for Clinical Laboratory Standards [Methods for dilution antimicrobial susceptibility tests for bacteria that grow aerobically, approved standard M7-A2, National Committee for Clinical Laboratory Standards, Villanova, Pa].
(§2) An inoculum level of 5×10^5 CFU/mL, and a range of antibiotic concentrations (64-0.06 μg/mL) is used. […] The test organisms include a spectrum of Gram-positive bacteria comprised of Staphylococcus sp., Streptococcus sp. and Enterococcus sp. These organisms include recent clinical isolates that are resistant to methicillin, penicillin and/or vancomycin.

[2] = tested on: Escherichia coli; conditions: 5×10^5 CFU/mL, 18 hours at 35° C.
Description: as §1, §2

[3] = tested on: Staphylococcus sp.; conditions: for MIC Staphylococcus aureus (ATCC 29213): strain ATCC 29213; for MIC Staphylococcus aureus (GC 1131): strain GC 1131; for MIC Staphylococcus aureus (GC 4541): strain GC 4541; for MIC Staphylococcus aureus (GC 4542): strain GC 4542; for MIC Staphylococcus aureus-SMITH (GC 4543): strain GC 4543; for MIC Staphylococcus aureus (GC 4544): strain GC 4544; for MIC Staphylococcus aureus (GC 4545): strain GC 4545; for MIC Staphylococcus haemolyticus (GC 4546): strain GC 4546; for MIC Coagulase Negative Staphylococcus (GC 4547): strain GC 4547; for MIC Coagulase Negative Staphylococcus (GC 4548): strain GC 4548; for MIC Coagulase Negative Staphylococcus (GC 4549): strain GC 4549; for MIC Coagulase Negative Staphylococcus (GC 4551): strain GC 4551; for MIC Coagulase Negative Staphylococcus (ID-3941): strain ID-3941; for MIC Staphylococcus aureus (GC 3051): strain GC 3051; for MIC Staphylococcus aureus (GC 3053): strain GC 3053; for MIC Coagulase Negative Staphylococcus (GC 6257): strain GC 6257
Description: as §1, §2

[4] = tested on: Enterococcus sp.; conditions: broth dilution, 5×10^5 CFU/mL, 18 hours at 35° C.
Description: as §1, §2

[5] = broth dilution, 18 hours at 35° C.

MIC Streptococcus agalactiae (GC 4564) [1]: <0.5 µg/mL
MIC Streptococcus pneumoniae (GC 4565) [1]: <0.5 µg/mL
MIC Streptococcus pyogenes (ID-3187) [1]: <0.5 µg/mL
MIC Escherichia coli (ATCC 25922) [2]: 64 µg/mL (≈ 46.5 µM)
MIC Staphylococcus aureus (ATCC 29213) [3]: 1 µg/mL (≈ 0.726 µM)
MIC Staphylococcus aureus (ATCC 29213) [3, 5]: 1 µg/mL (≈ 0.726 µM)
MIC Staphylococcus aureus (GC 1131) [3]: 1 µg/mL (≈ 0.726 µM)
MIC Staphylococcus aureus (GC 1131) [3, 5]: 1 µg/mL (≈ 0.726 µM)
MIC Staphylococcus aureus (GC 4541) [3]: 1 µg/mL (≈ 0.726 µM)
MIC Staphylococcus aureus (GC 4541) [3, 5]: 1 µg/mL (≈ 0.726 µM)
MIC Staphylococcus aureus (GC 4542) [3]: 1 µg/mL (≈ 0.726 µM)
MIC Staphylococcus aureus (GC 4542) [3, 5]: 1 µg/mL (≈ 0.726 µM)
MIC Staphylococcus aureus-SMITH (GC 4543) ([3]; 18 hours at 35° C.): 1 µg/mL (≈ 0.726 µM)
MIC Staphylococcus aureus-SMITH (GC 4543) [3, 5]: 1 µg/mL (≈ 0.726 µM)
MIC Staphylococcus aureus (GC 4544) [3]: 2 µg/mL (≈ 1.45 µM)
MIC Staphylococcus aureus (GC 4544) [3, 5]: 2 µg/mL (≈ 1.45 µM)
MIC Staphylococcus aureus (GC 4545) [3]: 1 µg/mL (≈ 0.726 µM)
MIC Staphylococcus aureus (GC 4545) [3, 5]: 1 µg/mL (≈ 0.726 µM)
MIC Coagulase Negative Staphylococcus (GC 4547) [3]: 1 µg/mL (≈ 0.726 µM)
MIC Coagulase Negative Staphylococcus (GC 4547) [3, 5]: 1 µg/mL (≈ 0.726 µM)
MIC Coagulase Negative Staphylococcus (GC 4548) [3]: 1 µg/mL (≈ 0.726 µM)
MIC Coagulase Negative Staphylococcus (GC 4548) [3, 5]: 1 µg/mL (≈ 0.726 µM)
MIC Coagulase Negative Staphylococcus (GC 4549) [3]: 1 µg/mL (≈ 0.726 µM)
MIC Coagulase Negative Staphylococcus (GC 4549) [3, 5]: 1 µg/mL (≈ 0.726 µM)
MIC Coagulase Negative Staphylococcus (GC 4551) [3]: 1 µg/mL (≈ 0.726 µM)
MIC Coagulase Negative Staphylococcus (GC 4551) [3, 5]: 1 µg/mL (≈ 0.726 µM)
MIC Coagulase Negative Staphylococcus (ID-3941) [3]: 1 µg/mL (≈ 0.726 µM)
MIC Coagulase Negative Staphylococcus (ID-3941) [3, 5]: 1 µg/mL (≈ 0.726 µM)
MIC Enterococccus avium (GC 4558) [4]: 4 µg/mL (≈ 2.9 µM)
MIC Enterococccus faecalis (ATCC 29212) [4]: 4 µg/mL (≈ 2.9 µM)
MIC Enterococccus faecalis (GC 4552) [4]: 4 µg/mL (≈ 2.9 µM)
MIC Enterococccus faecalis (GC 4553) [4]: 4 µg/mL (≈ 2.9 µM)
MIC Enterococccus faecalis (GC 4554) [4]: 2 µg/mL (≈ 1.45 µM)
MIC Enterococccus faecium (GC 2243) [4]: 4 µg/mL (≈ 2.9 µM)
MIC Enterococccus faecium (GC 4556) [4]: 2 µg/mL (≈ 1.45 µM)
MIC Enterococccus faecium (GC 4557) [4]: 2 µg/mL (≈ 1.45 µM)
MIC Enterococcus faecalis (GC 2242) [4]: 2 µg/mL (≈ 1.45 µM)
Structure (SMILES): CC(c1ccccc1)C1NC(=O)CNC(=O)C(CO)NC(=O)C(C(O)C2CNC(=N)N2C2OC(CO)C(O)C(O)C2O)NC(=O)C(C(O)C2CNC(=N)N2)NC(=O)C(Cc2ccc(OC3OC(CO)C(OC4OC5COC(CC(C)(C)C)OC5C(O)C4O)C(O)C3O)cc2)NC1=O (centres unmarked) [Example 110]
MIC Staphylococcus haemolyticus (GC 4546) [3]: 1 µg/mL (≈ 0.726 µM)
MIC Staphylococcus haemolyticus (GC 4546) [3, 5]: 1 µg/mL (≈ 0.726 µM)

Structure (SMILES): CCCCOC(=O)CCC1OCC2OC(OC3C(CO)OC(Oc4ccc(CC5NC(=O)C(C(C)c6ccccc6)NC(=O)CNC(=O)C(CO)NC(=O)C(C(O)C6CNC(=N)N6C6OC(CO)C(O)C(O)C6O)NC(=O)C(C(O)C6CNC(=N)N6)NC5=O)cc4)C(O)C3O)C(O)C(O)C2O1 (stereo not drawn) [Example 114, Cyclo[glycyl-β-methylphenylalanyl-O-[4-O-[4,6-O-(4-butoxy-4-oxobutylidene)hexopyranosyl]-hexopyranosyl]tyrosyl-3-(2-iminoimidazolidin-4-yl)seryl-3-(3-hexopyranosyl-2-iminoimidazolidin-4-yl)serylseryl]]
MIC Streptococcus agalactiae (GC 4564) [1]: 0.5 µg/mL (≈ 0.348 µM)
MIC Streptococcus pneumoniae (GC 1894) [1]: <0.06 µg/mL
MIC Streptococcus pneumoniae (GC 4565) [1]: 0.25 µg/mL (≈ 0.174 µM)
MIC Streptococcus pneumonine (ATCC 6301) [1]: 0.12 µg/mL (≈ 0.0836 µM)
MIC Streptococcus pyogenes (GC 4563) [1]: 0.5 µg/mL (≈ 0.348 µM)
MIC Escherichia coli (ATCC 25922) [2]: 64 µg/mL (≈ 44.6 µM)
MIC Escherichia coli (GC 4559) [2]: 64 µg/mL (≈ 44.6 µM)
MIC Escherichia coli (GC 4560) [2]: 1 µg/mL (≈ 0.697 µM)
MIC Staphylococcus aureus (ATCC 29213) [3]: 2 µg/mL (≈ 1.39 µM)
MIC Staphylococcus aureus (ATCC 29213) [3, 5]: 2 µg/mL (≈ 1.39 µM)
MIC Staphylococcus aureus (GC 1131) [3]: 2 µg/mL (≈ 1.39 µM)
MIC Staphylococcus aureus (GC 1131) [3, 5]: 2 µg/mL (≈ 1.39 µM)
MIC Staphylococcus aureus (GC 3051) [3]: 2 µg/mL (≈ 1.39 µM)
MIC Staphylococcus aureus (GC 3051) [3, 5]: 2 µg/mL (≈ 1.39 µM)
MIC Staphylococcus aureus (GC 3053) [3]: 2 µg/mL (≈ 1.39 µM)
MIC Staphylococcus aureus (GC 3053) [3, 5]: 2 µg/mL (≈ 1.39 µM)
MIC Staphylococcus aureus (GC 4541) [3]: 2 µg/mL (≈ 1.39 µM)
MIC Staphylococcus aureus (GC 4541) [3, 5]: 2 µg/mL (≈ 1.39 µM)
MIC Staphylococcus aureus (GC 4542) [3]: 1 µg/mL (≈ 0.697 µM)
MIC Staphylococcus aureus (GC 4542) [3, 5]: 1 µg/mL (≈ 0.697 µM)
MIC Staphylococcus aureus-SMITH (GC 4543) ([3]; 18 hours at 35° C.): 2 µg/mL (≈ 1.39 µM)
MIC Staphylococcus aureus-SMITH (GC 4543) [3, 5]: 2 µg/mL (≈ 1.39 µM)
MIC Staphylococcus aureus (GC 4544) [3]: 2 µg/mL (≈ 1.39 µM)
MIC Staphylococcus aureus (GC 4544) [3, 5]: 2 µg/mL (≈ 1.39 µM)
MIC Staphylococcus aureus (GC 4545) [3]: 2 µg/mL (≈ 1.39 µM)
MIC Staphylococcus aureus (GC 4545) [3, 5]: 2 µg/mL (≈ 1.39 µM)
MIC Staphylococcus haemolyticus (GC 4546) [3]: 1 µg/mL (≈ 0.697 µM)
MIC Staphylococcus haemolyticus (GC 4546) [3, 5]: 1 µg/mL (≈ 0.697 µM)
MIC Coagulase Negative Staphylococcus (GC 4547) [3]: 2 µg/mL (≈ 1.39 µM)
MIC Coagulase Negative Staphylococcus (GC 4547) [3, 5]: 2 µg/mL (≈ 1.39 µM)
MIC Coagulase Negative Staphylococcus (GC 4548) [3]: 1 µg/mL (≈ 0.697 µM)
MIC Coagulase Negative Staphylococcus (GC 4548) [3, 5]: 1 µg/mL (≈ 0.697 µM)
MIC Coagulase Negative Staphylococcus (GC 4549) [3]: 2 µg/mL (≈ 1.39 µM)
MIC Coagulase Negative Staphylococcus (GC 4549) [3, 5]: 2 µg/mL (≈ 1.39 µM)
MIC Coagulase Negative Staphylococcus (GC 4551) [3]: 2 µg/mL (≈ 1.39 µM)
MIC Coagulase Negative Staphylococcus (GC 4551) [3, 5]: 2 µg/mL (≈ 1.39 µM)
MIC Coagulase Negative Staphylococcus (GC 6257) [3]: 1 µg/mL (≈ 0.697 µM)
MIC Coagulase Negative Staphylococcus (GC 6257) [3, 5]: 1 µg/mL (≈ 0.697 µM)
MIC Enterococccus avium (GC 4558) [4]: 8 µg/mL (≈ 5.57 µM)
MIC Enterococccus faecalis (ATCC 29212) [4]: 4 µg/mL (≈ 2.79 µM)
MIC Enterococccus faecalis (GC 2691) [4]: 4 µg/mL (≈ 2.79 µM)
MIC Enterococccus faecalis (GC 3059) [4]: 8 µg/mL (≈ 5.57 µM)
MIC Enterococccus faecalis (GC 4552) [4]: 4 µg/mL (≈ 2.79 µM)
MIC Enterococccus faecalis (GC 4553) [4]: 8 µg/mL (≈ 5.57 µM)
MIC Enterococccus faecalis (GC 4554) [4]: 4 µg/mL (≈ 2.79 µM)
MIC Enterococccus faecalis (GC 6189) [4]: 4 µg/mL (≈ 2.79 µM)
MIC Enterococccus faecium (GC 2243) [4]: 4 µg/mL (≈ 2.79 µM)
MIC Enterococccus faecium (GC 4556) [4]: 4 µg/mL (≈ 2.79 µM)
MIC Enterococccus faecium (GC 4557) [4]: 2 µg/mL (≈ 1.39 µM)
MIC Enterococcus faecalis (GC 2242) [4]: 4 µg/mL (≈ 2.79 µM)
